ChEMBL document CHEMBL1156297, “Sulfonamide linked neoglycoconjugates--a new class of inhibitors for cancer-associated carbonic anhydrases” (J Med Chem, 2010)

Tests used:
[1] = target: Carbonic anhydrase 12 (Homo sapiens, UniProt O43570)
[2] = target: Carbonic anhydrase 2 (Homo sapiens, UniProt P00918)
[3] = target: Carbonic anhydrase 1 (Homo sapiens, UniProt P00915)
[4] = target: Carbonic anhydrase 9 (Homo sapiens, UniProt Q16790)
[5] = Permeability by PAMPA; type: ADME; details: read-out: permeability

Carbonic anhydrase 12, sequence (O43570 whole entry): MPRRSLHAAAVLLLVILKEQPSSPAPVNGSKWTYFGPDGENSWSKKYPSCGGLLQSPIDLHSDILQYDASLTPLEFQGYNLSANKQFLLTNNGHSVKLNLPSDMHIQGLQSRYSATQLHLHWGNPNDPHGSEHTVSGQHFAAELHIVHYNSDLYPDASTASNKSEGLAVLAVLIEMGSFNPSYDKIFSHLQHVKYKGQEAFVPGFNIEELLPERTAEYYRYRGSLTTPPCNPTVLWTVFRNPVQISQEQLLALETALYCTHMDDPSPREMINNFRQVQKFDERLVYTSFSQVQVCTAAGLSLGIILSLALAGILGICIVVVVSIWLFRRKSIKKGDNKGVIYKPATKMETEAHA
Carbonic anhydrase 1, sequence (P00915 whole entry): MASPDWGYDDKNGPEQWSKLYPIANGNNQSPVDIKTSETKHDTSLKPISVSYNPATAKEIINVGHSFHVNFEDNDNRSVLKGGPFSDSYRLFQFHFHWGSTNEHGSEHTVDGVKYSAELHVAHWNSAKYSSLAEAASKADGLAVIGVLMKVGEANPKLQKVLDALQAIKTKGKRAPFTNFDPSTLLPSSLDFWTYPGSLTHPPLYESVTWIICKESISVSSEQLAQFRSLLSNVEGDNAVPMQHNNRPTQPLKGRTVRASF

Row | SMILES | Ki [1] | Ki [2] | Ki [3] | Ki [4] | Papp [5]
1 | CC(=O)OC[C@H]1O[C@@H](S(=O)(=O)NCc2ccc(S(N)(=O)=O)cc2)[C@H](OC(C)=O)[C@@H](OC(C)=O)[C@H]1OC(C)=O | 0.0099 µM | 0.0163 µM | 0.11 µM |  | 
2 | NS(=O)(=O)c1ccc(CNS(=O)(=O)[C@@H]2O[C@H](CO)[C@H](O)[C@H](O)[C@H]2O)cc1 | 0.0087 µM | 0.0078 µM | 0.087 µM |  | 
3 | COC(=O)[C@H]1O[C@@H](SNCc2ccc(S(N)(=O)=O)cc2)[C@H](OC(C)=O)[C@@H](OC(C)=O)[C@H]1OC(C)=O | 0.0156 µM | 0.0181 µM | 0.11 µM | 0.102 µM | 
4 | NS(=O)(=O)c1ccc(CCNS(=O)(=O)[C@@H]2O[C@H](CO)[C@H](O)[C@H](O)[C@H]2O)cc1 | 0.0078 µM | 0.0076 µM | 0.082 µM | 0.1 µM | 
5 | CC(=O)OC[C@H]1O[C@@H](S(=O)(=O)NCCc2ccc(S(N)(=O)=O)cc2)[C@H](OC(C)=O)[C@@H](OC(C)=O)[C@@H]1O[C@H]1O[C@H](COC(C)=O)[C@@H](OC(C)=O)[C@H](OC(C)=O)[C@H]1OC(C)=O | 0.0088 µM | 0.0152 µM | 5.57 µM | 0.093 µM | 
6 | CC(=O)OC[C@H]1O[C@@H](O[C@H]2[C@H](OC(C)=O)[C@@H](OC(C)=O)[C@H](S(=O)(=O)NCc3ccc(S(N)(=O)=O)cc3)O[C@@H]2COC(C)=O)[C@H](OC(C)=O)[C@@H](OC(C)=O)[C@H]1OC(C)=O | 0.0104 µM | 0.0588 µM | 4.93 µM |  | 
7 | CC(=O)OC[C@H]1O[C@@H](S(=O)(=O)NCCc2ccc(S(N)(=O)=O)cc2)[C@H](OC(C)=O)[C@@H](OC(C)=O)[C@@H]1OC(C)=O | 0.0095 µM | 0.0154 µM | 0.09 µM |  | 
8 | NS(=O)(=O)c1ccc(CCNS(=O)(=O)[C@@H]2O[C@H](CO)[C@@H](O[C@@H]3O[C@H](CO)[C@H](O)[C@H](O)[C@H]3O)[C@H](O)[C@H]2O)cc1 | 0.0091 µM | 0.0046 µM | 0.078 µM | 0.1 µM | 
9 | CC(=O)OC[C@H]1O[C@@H](SNCc2ccc(S(N)(=O)=O)cc2)[C@H](OC(C)=O)[C@@H](OC(C)=O)[C@@H]1OC(C)=O | 0.0115 µM | 0.0148 µM | 4.16 µM |  | 
10 | CC(=O)OC[C@H]1O[C@@H](S(=O)(=O)NCc2ccc(S(N)(=O)=O)cc2)[C@H](OC(C)=O)[C@@H](OC(C)=O)[C@@H]1OC(C)=O | 0.0093 µM | 0.0148 µM | 0.12 µM |  | < 0.5 nm/s
11 | CC(=O)Nc1nnc(S(N)(=O)=O)s1 [ACETAZOLAMIDE] |  |  |  |  | < 1.5 nm/s
12 | COC(=O)[C@H]1O[C@@H](S(=O)(=O)NCc2ccc(S(N)(=O)=O)cc2)[C@H](OC(C)=O)[C@@H](OC(C)=O)[C@H]1OC(C)=O | 0.0098 µM | 0.0658 µM | 2.4 µM |  | 
13 | NS(=O)(=O)c1ccc(CCNS(=O)(=O)[C@@H]2O[C@H](C(=O)O)[C@H](O)[C@H](O)[C@H]2O)cc1 | 0.0095 µM | 0.0047 µM | 0.097 µM | 0.096 µM | 
14 | CC(=O)OC[C@H]1O[C@@H](SNCc2ccc(S(N)(=O)=O)cc2)[C@H](OC(C)=O)[C@@H](OC(C)=O)[C@H]1OC(C)=O | 0.0155 µM | 0.0134 µM | 0.12 µM |  | 
15 | CC(=O)OC[C@H]1O[C@@H](S(=O)(=O)NCCc2ccc(S(N)(=O)=O)cc2)[C@H](OC(C)=O)[C@@H](OC(C)=O)[C@H]1OC(C)=O | 0.0094 µM | 0.0738 µM | 4.71 µM |  | 
16 | COC(=O)[C@H]1O[C@@H](SNCCc2ccc(S(N)(=O)=O)cc2)[C@H](OC(C)=O)[C@@H](OC(C)=O)[C@H]1OC(C)=O | 0.0095 µM | 0.0162 µM | 0.11 µM |  | 

Row | SMILES | Ki [1] | Ki [2] | Ki [3] | Ki [4] | Papp [5]
17 | CC(=O)OC[C@H]1O[C@@H](SNCc2ccc(S(N)(=O)=O)cc2)[C@H](OC(C)=O)[C@@H](OC(C)=O)[C@@H]1O[C@H]1O[C@H](COC(C)=O)[C@@H](OC(C)=O)[C@H](OC(C)=O)[C@H]1OC(C)=O | 0.0085 µM | 0.0131 µM | 3.46 µM |  | 
18 | CC(=O)OC[C@H]1O[C@@H](SNCCc2ccc(S(N)(=O)=O)cc2)[C@H](OC(C)=O)[C@@H](OC(C)=O)[C@@H]1O[C@H]1O[C@H](COC(C)=O)[C@@H](OC(C)=O)[C@H](OC(C)=O)[C@H]1OC(C)=O | 0.0088 µM | 0.0151 µM | 6.75 µM | 0.094 µM | 
19 | CC(=O)OC[C@H]1O[C@@H](SNCCc2ccc(S(N)(=O)=O)cc2)[C@H](OC(C)=O)[C@@H](OC(C)=O)[C@@H]1OC(C)=O | 0.0136 µM | 0.0145 µM | 3.89 µM | 0.097 µM | 
20 | NS(=O)(=O)c1ccc(CNS(=O)(=O)[C@@H]2O[C@H](C(=O)O)[C@H](O)[C@H](O)[C@H]2O)cc1 | 0.0089 µM | 0.0071 µM | 0.081 µM | 0.097 µM | 
21 | CC(=O)OC[C@H]1O[C@@H](O[C@H]2[C@H](OC(C)=O)[C@@H](OC(C)=O)[C@H](S(=O)(=O)NCCc3ccc(S(N)(=O)=O)cc3)O[C@@H]2COC(C)=O)[C@H](OC(C)=O)[C@@H](OC(C)=O)[C@H]1OC(C)=O | 0.0095 µM | 0.0562 µM | 3.46 µM | 0.097 µM | 
22 | NS(=O)(=O)c1ccc(CNS(=O)(=O)[C@@H]2O[C@H](CO)[C@@H](O[C@H]3O[C@H](CO)[C@@H](O)[C@H](O)[C@H]3O)[C@H](O)[C@H]2O)cc1 | 0.0082 µM | 0.0048 µM | 0.101 µM | 0.098 µM | 
23 | CC(=O)OC[C@H]1O[C@@H](O[C@H]2[C@H](OC(C)=O)[C@@H](OC(C)=O)[C@H](SNCc3ccc(S(N)(=O)=O)cc3)O[C@@H]2COC(C)=O)[C@H](OC(C)=O)[C@@H](OC(C)=O)[C@H]1OC(C)=O | 0.0098 µM | 0.0155 µM | 6.83 µM |  | 
24 | COC(=O)[C@H]1O[C@@H](S(=O)(=O)NCCc2ccc(S(N)(=O)=O)cc2)[C@H](OC(C)=O)[C@@H](OC(C)=O)[C@H]1OC(C)=O | 0.0097 µM | 0.0627 µM | 3.21 µM | 0.095 µM | 
25 | NS(=O)(=O)c1ccc(CNS(=O)(=O)[C@@H]2O[C@H](CO)[C@@H](O[C@@H]3O[C@H](CO)[C@H](O)[C@H](O)[C@H]3O)[C@H](O)[C@H]2O)cc1 | 0.0089 µM | 0.005 µM | 0.107 µM | 0.106 µM | 
26 | CC(=O)OC[C@H]1O[C@@H](O[C@H]2[C@H](OC(C)=O)[C@@H](OC(C)=O)[C@H](SNCCc3ccc(S(N)(=O)=O)cc3)O[C@@H]2COC(C)=O)[C@H](OC(C)=O)[C@@H](OC(C)=O)[C@H]1OC(C)=O | 0.0087 µM | 0.012 µM | 8.04 µM | 0.097 µM | 
27 | NS(=O)(=O)c1ccc(CCNS(=O)(=O)[C@@H]2O[C@H](CO)[C@@H](O)[C@H](O)[C@H]2O)cc1 | 0.0076 µM | 0.0078 µM | 0.088 µM | 0.084 µM | 
28 | NS(=O)(=O)c1ccc(CCNS(=O)(=O)[C@@H]2O[C@H](CO)[C@@H](O[C@H]3O[C@H](CO)[C@@H](O)[C@H](O)[C@H]3O)[C@H](O)[C@H]2O)cc1 | 0.0073 µM | 0.0052 µM | 0.102 µM | 0.081 µM | 
29 | NS(=O)(=O)c1ccc(CNS(=O)(=O)[C@@H]2O[C@H](CO)[C@@H](O)[C@H](O)[C@H]2O)cc1 | 0.0083 µM | 0.0091 µM | 0.102 µM |  | < 0.5 nm/s
30 | CC(=O)OC[C@H]1O[C@@H](S(=O)(=O)NCc2ccc(S(N)(=O)=O)cc2)[C@H](OC(C)=O)[C@@H](OC(C)=O)[C@@H]1O[C@H]1O[C@H](COC(C)=O)[C@@H](OC(C)=O)[C@H](OC(C)=O)[C@H]1OC(C)=O | 0.0091 µM | 0.0625 µM | 2.04 µM |  | 
31 | CC(=O)OC[C@H]1O[C@@H](SNCCc2ccc(S(N)(=O)=O)cc2)[C@H](OC(C)=O)[C@@H](OC(C)=O)[C@H]1OC(C)=O | 0.0167 µM | 0.0133 µM | 4.1 µM | 0.107 µM | 
